This assay addresses Human LDHA (Homo sapiens (Human), UniProt P00338). Description: human LDHA primary biochemical assay. The following applies: biochemical LDHA inhibitory activity, assay of Example 1; activity level classes defined in nM. An excerpt: This example describes a human LDHA primary biochemical assay employed in the characterization of a compound of formula (I) in an embodiment of the invention.
Test compounds were placed in a Greiner Bio-One (Monroe, N.C.) 1536-well black solid bottom assay plate. 200 millimolar (mM) Tris HCl, pH 7.4, 100 micromolar (μM) EDTA and 0.01% TWEEN-20™, final concentration, was used as the assay buffer. The LDHA reagent was 2 nanomolar (nM) Human LDHA (Meridian Life Science, Inc., Memphis, Tenn.), final concentration, in assay buffer. The substrate reagent was 0.06 mM NADH and 0.2 mM sodium pyruvate, final concentration, in assay buffer. The resazurin/diaphorase coupling reagent was 0.037 mM resazurin and 0.133 milligrams per milliliter (mg/mL) diaphorase, final concentration, in assay buffer. The inhibition of LDHA activity was measured by fluorescence emission.

The record followed here is patent US10954228B2 (NATIONAL INSTITUTES OF HEALTH, UNITED STATES DEPARTMENT OF …, priority 2016, dated 2021).

As a reminder, the IC50 is the concentration that inhibits the measured activity by half. A low value points to higher potency.

`Cc1ccc(C#Cc2cccc(-c3nn(-c4nc(CO)cs4)c(CC4CC4)c3Cc3ccc(S(N)(=O)=O)c(F)c3)c2)s1` [Compound 181, 4-((5-(cyclopropylmethyl)-1-(4-(hydroxymethyl)thiazol-2-yl)-3-(3-((5-methylthiophen-2-yl)ethynyl)phenyl)-1H-pyrazol-4-yl)methyl)-2-fluorobenzenesulfonamide] gave an IC50 above 57000 nM.

For `CCc1cc(-c2cccc(-c3nn(-c4nc(C(=O)O)cs4)c(CC4CC4)c3Cc3ccc(S(N)(=O)=O)c(F)c3)c2)ccc1OC` [Compound 182, 2-(5-(cyclopropylmethyl)-3-(3′-ethyl-4′-methoxy-[1,1′-biphenyl]-3-yl)-4-(3-fluoro-4-sulfamoylbenzyl)-1H-pyrazol-1-yl)thiazole-4-carboxylic acid], the IC50 fell in the range of 100 to 1000 nM.

`NS(=O)(=O)c1ccc(Cc2c(-c3cccc(-c4ccc(C5CC5)cc4)c3)nn(-c3nc(C(=O)O)cs3)c2CC2CC2)cc1F` [Compound 183, 2-(3-(4′-cyclopropyl-[1,1′-biphenyl]-3-yl)-5-(cyclopropylmethyl)-4-(3-fluoro-4-sulfamoylbenzyl)-1H-pyrazol-1-yl)thiazole-4-carboxylic acid] had an IC50 below 100 nM.

Molecule `NS(=O)(=O)c1ccc(Cc2c(-c3cccc(-c4ccc(C5CCC5)cc4)c3)nn(-c3nc(C(=O)O)cs3)c2CC2CC2)cc1F` [Compound 184, 2-(3-(4′-cyclobutyl-[1,1′-biphenyl]-3-yl)-5-(cyclopropylmethyl)-4-(3-fluoro-4-sulfamoylbenzyl)-1H-pyrazol-1-yl)thiazole-4-carboxylic acid] had an IC50 of 100 to 1000 nM.

For `Cc1cc(-c2cc(-c3nn(-c4nc(C(=O)O)cs4)c(CC4CC4)c3Cc3ccc(S(N)(=O)=O)c(F)c3)ccc2F)ccc1Cl` [Compound 185, 2-(3-(4′-chloro-6-fluoro-3′-methyl-[1,1′-biphenyl]-3-yl)-5-(cyclopropylmethyl)-4-(3-fluoro-4-sulfamoylbenzyl)-1H-pyrazol-1-yl)thiazole-4-carboxylic acid], the IC50 lay in the range of 100 to 1000 nM.

As for `CCc1cc(-c2cc(-c3nn(-c4nc(C(=O)O)cs4)c(CC4CC4)c3Cc3ccc(S(N)(=O)=O)c(F)c3)ccc2F)ccc1OC` [Compound 186, 2-(5-(cyclopropylmethyl)-3-(3′-ethyl-6-fluoro-4′-methoxy-[1,1′-biphenyl]-3-yl)-4-(3-fluoro-4-sulfamoylbenzyl)-1H-pyrazol-1-yl)thiazole-4-carboxylic acid], the IC50 lay in the range of 100 to 1000 nM.

`NS(=O)(=O)c1ccc(Cc2c(-c3cccc(-c4ccc(CC(F)(F)F)cc4)c3)nn(-c3nc(C(=O)O)cs3)c2CC2CC2)cc1F` [Compound 187, 2-(5-(cyclopropylmethyl)-4-(3-fluoro-4-sulfamoylbenzyl)-3-(4′-(2,2,2-trifluoroethyl)-[1,1′-biphenyl]-3-yl)-1H-pyrazol-1-yl)thiazole-4-carboxylic acid]: the IC50 lay in the range of 100 to 1000 nM.

`NS(=O)(=O)c1ccc(Cc2c(-c3cccc(-c4nc5ccccc5[nH]4)c3)nn(-c3nc(C(=O)O)cs3)c2CC2CC2)cc1F` [Compound 189, 2-(3-(3-(1H-benzo[d]imidazol-2-yl)phenyl)-5-(cyclopropylmethyl)-4-(3-fluoro-4-sulfamoylbenzyl)-1H-pyrazol-1-yl)thiazole-4-carboxylic acid] had an IC50 below 100 nM.

For the molecule `COc1ccc(-c2cc(-c3nn(-c4nc(C(=O)O)cs4)c(CC4CC4)c3Cc3ccc(S(N)(=O)=O)c(F)c3)ccc2F)cc1Cl` [Compound 191, 2-(3-(3′-chloro-6-fluoro-4′-methoxy-[1,1′-biphenyl]-3-yl)-5-(cyclopropylmethyl)-4-(3-fluoro-4-sulfamoylbenzyl)-1H-pyrazol-1-yl)thiazole-4-carboxylic acid], the IC50 was below 100 nM.

Consider `CC(C)(C)c1cccc(-c2cc(-c3nn(-c4nc(C(=O)O)cs4)c(CC4CC4)c3Cc3ccc(S(N)(=O)=O)c(F)c3)ccc2F)c1` [Compound 192, 2-(3-(3′-(tert-butyl)-6-fluoro-[1,1′-biphenyl]-3-yl)-5-(cyclopropylmethyl)-4-(3-fluoro-4-sulfamoylbenzyl)-1H-pyrazol-1-yl)thiazole-4-carboxylic acid], for which the IC50 is 100 to 1000 nM.

In turn, `CC(C)(C)c1ccc(-c2cc(-c3nn(-c4nc(C(=O)O)cs4)c(CC4CC4)c3Cc3ccc(S(N)(=O)=O)c(F)c3)ccc2F)cc1` [Compound 193, 2-(3-(4′-(tert-butyl)-6-fluoro-[1,1′-biphenyl]-3-yl)-5-(cyclopropylmethyl)-4-(3-fluoro-4-sulfamoylbenzyl)-1H-pyrazol-1-yl)thiazole-4-carboxylic acid] had an IC50 of 100 to 1000 nM.

The molecule `CN(C)c1cccc(-c2cc(-c3nn(-c4nc(C(=O)O)cs4)c(CC4CC4)c3Cc3ccc(S(N)(=O)=O)c(F)c3)ccc2F)c1` [Compound 194, 2-(5-(cyclopropylmethyl)-3-(3′-(dimethylamino)-6-fluoro-[1,1′-biphenyl]-3-yl)-4-(3-fluoro-4-sulfamoylbenzyl)-1H-pyrazol-1-yl)thiazole-4-carboxylic acid] showed an IC50 below 100 nM.

`Cc1cc(-c2cc(-c3nn(-c4nc(C(=O)O)cs4)c(CC4CC4)c3Cc3ccc(S(N)(=O)=O)c(F)c3)ccc2F)ccc1F` [Compound 195, 2-(5-(cyclopropylmethyl)-3-(4′,6-difluoro-3′-methyl-[1,1′-biphenyl]-3-yl)-4-(3-fluoro-4-sulfamoylbenzyl)-1H-pyrazol-1-yl)thiazole-4-carboxylic acid] had an IC50 below 100 nM.

In turn, `Cc1ccc(-c2cccc(-c3nn(-c4nc(C(=O)O)cs4)c(CC4CC4)c3Cc3ccc(S(N)(=O)=O)c(F)c3)c2)cc1` [Compound 198, 2-(5-(cyclopropylmethyl)-4-(3-fluoro-4-sulfamoylbenzyl)-3-(4′-methyl-[1,1′-biphenyl]-3-yl)-1H-pyrazol-1-yl)thiazole-4-carboxylic acid] had an IC50 below 100 nM.

`N#Cc1cccc(-c2cc(-c3nn(-c4nc(C(=O)O)cs4)c(CC4CC4)c3Cc3ccc(S(N)(=O)=O)c(F)c3)ccc2F)c1` [Compound 200, 2-(3-(3′-cyano-6-fluoro-[1,1′-biphenyl]-3-yl)-5-(cyclopropylmethyl)-4-(3-fluoro-4-sulfamoylbenzyl)-1H-pyrazol-1-yl)thiazole-4-carboxylic acid] returned an IC50 below 100 nM.

With `N#Cc1ccc(-c2cc(-c3nn(-c4nc(C(=O)O)cs4)c(CC4CC4)c3Cc3ccc(S(N)(=O)=O)c(F)c3)ccc2F)cc1` [Compound 201, 2-(3-(4′-cyano-6-fluoro-[1,1′-biphenyl]-3-yl)-5-(cyclopropylmethyl)-4-(3-fluoro-4-sulfamoylbenzyl)-1H-pyrazol-1-yl)thiazole-4-carboxylic acid], the IC50 is below 100 nM.

In turn, `NS(=O)(=O)c1ccc(Cc2c(-c3ccc(F)c(N4CCCC4=O)c3)nn(-c3nc(C(=O)O)cs3)c2CC2CC2)cc1F` [Compound 202, 2-(5-(cyclopropylmethyl)-3-(4-fluoro-3-(2-oxopyrrolidin-1-yl)phenyl)-4-(3-fluoro-4-sulfamoylbenzyl)-1H-pyrazol-1-yl)thiazole-4-carboxylic acid] gave an IC50 below 100 nM.

On to `Cc1ccc(-c2cccc(-c3nn(-c4nc(C(=O)O)cs4)c(CC4CC4)c3Cc3ccc(S(N)(=O)=O)c(F)c3)c2)nc1` [Compound 203, 2-(5-(cyclopropylmethyl)-4-(3-fluoro-4-sulfamoylbenzyl)-3-(3-(5-methylpyridin-2-yl)phenyl)-1H-pyrazol-1-yl)thiazole-4-carboxylic acid], for which the IC50 was below 100 nM.
